# Measured values from US10472333B2, “P2X4 receptor antagonist” (NIPPON CHEMIPHAR CO., LTD., priority 2013, dated 2019).
# What was measured:
# human P2X4 receptor = molecular target: T1, human P2X4 receptor (Homo sapiens, UniProt Q99571); assay: P2X4 receptor antagonist activity, ATP-induced intracellular calcium (Fura-2 AM) in 1321N1 cells stably expressing human P2X4 receptor; type: cell-based; settings: among human, mouse, and rat
# T1 sequence (Q99571 1-388): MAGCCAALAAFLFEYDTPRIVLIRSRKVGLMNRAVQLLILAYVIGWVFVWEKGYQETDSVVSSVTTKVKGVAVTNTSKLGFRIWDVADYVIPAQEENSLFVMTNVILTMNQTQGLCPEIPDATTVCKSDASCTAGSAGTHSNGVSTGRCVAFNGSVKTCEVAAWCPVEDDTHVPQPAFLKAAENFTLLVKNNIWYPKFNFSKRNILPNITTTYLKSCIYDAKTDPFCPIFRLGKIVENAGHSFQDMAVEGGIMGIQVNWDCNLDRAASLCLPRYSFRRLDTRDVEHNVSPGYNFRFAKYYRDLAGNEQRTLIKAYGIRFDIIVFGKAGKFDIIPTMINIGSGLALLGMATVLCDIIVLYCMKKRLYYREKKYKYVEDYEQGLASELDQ
# Rat P2X3 = molecular target: T2, Rat P2X3 (Rattus norvegicus, UniProt P49654); assay: P2X receptor family selectivity, calcium imaging method using cells expressing the receptor; type: cell-based
# T2 construct: host or cells: cells expressing the receptor
# T2 sequence (P49654 1-397): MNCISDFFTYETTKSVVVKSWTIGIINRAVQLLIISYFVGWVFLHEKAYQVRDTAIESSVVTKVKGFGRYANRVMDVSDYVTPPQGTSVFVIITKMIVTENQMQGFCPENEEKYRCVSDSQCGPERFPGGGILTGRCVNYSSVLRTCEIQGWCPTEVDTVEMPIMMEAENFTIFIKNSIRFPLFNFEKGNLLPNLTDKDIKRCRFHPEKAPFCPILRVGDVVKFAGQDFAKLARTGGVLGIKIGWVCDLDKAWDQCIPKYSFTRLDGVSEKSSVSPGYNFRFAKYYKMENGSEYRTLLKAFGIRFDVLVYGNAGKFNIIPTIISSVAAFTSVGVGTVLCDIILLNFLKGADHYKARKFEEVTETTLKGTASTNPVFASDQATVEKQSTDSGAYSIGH
# [1] = tested on: rat neuropathic pain model (modified Chung model); assay: Analgesic activity, rat neuropathic pain model (modified Chung model), von Frey filament test; type: in vivo
# Method: The analgesic activity of the compound of the present invention was measured by the following method.
# Rat neuropathic pain model (modified Chung model) was prepared according to the method of Kim, S. H., Chung, J. M. et al. (An experimental model for peripheral neuropathy produced by segmental spinal nerve ligation in the rat, Pain, 50, 355-363 (1992)). More specifically; under isoflurane anesthesia, back hair of rats was extensively shaved, the shaved parts were wiped with rubbing alcohol, the rats were fixed in the prone position on a heating pad, and the skins were cut and opened along the dorsal median line on the upper and lower sides of the sacroiliac bone. The left lateral paravertebral muscle was separated in the sacral region, and then the ligament was separated. […]
# The pain threshold (paw withdrawal threshold (g)) was measured by stimulating the soles of rats with each of seven von Frey filaments (Stoelting Co., TOUCH-TEST SENSORY EVALUATOR) that gave different stimulation strengths, and determining presence or absence of withdrawal response. The 50% threshold was calculated according to the up down method with reference to the method of Chaplan et al. (Chaplan S R, Bach F W, Pogrel J W, Chung J M, Yaksh T L: Quantitative assessment of tactile allodynia in the rat paw, J. Neurosci. Method, 53:55-63 (1994)). […]
# Human P2X7 = molecular target: T3, Human P2X7 (Homo sapiens, UniProt Q99572); assay: P2X receptor family selectivity, calcium imaging method using cells expressing the receptor; type: cell-based
# T3 construct: host or cells: cells expressing the receptor
# T3 sequence (Q99572 1-595): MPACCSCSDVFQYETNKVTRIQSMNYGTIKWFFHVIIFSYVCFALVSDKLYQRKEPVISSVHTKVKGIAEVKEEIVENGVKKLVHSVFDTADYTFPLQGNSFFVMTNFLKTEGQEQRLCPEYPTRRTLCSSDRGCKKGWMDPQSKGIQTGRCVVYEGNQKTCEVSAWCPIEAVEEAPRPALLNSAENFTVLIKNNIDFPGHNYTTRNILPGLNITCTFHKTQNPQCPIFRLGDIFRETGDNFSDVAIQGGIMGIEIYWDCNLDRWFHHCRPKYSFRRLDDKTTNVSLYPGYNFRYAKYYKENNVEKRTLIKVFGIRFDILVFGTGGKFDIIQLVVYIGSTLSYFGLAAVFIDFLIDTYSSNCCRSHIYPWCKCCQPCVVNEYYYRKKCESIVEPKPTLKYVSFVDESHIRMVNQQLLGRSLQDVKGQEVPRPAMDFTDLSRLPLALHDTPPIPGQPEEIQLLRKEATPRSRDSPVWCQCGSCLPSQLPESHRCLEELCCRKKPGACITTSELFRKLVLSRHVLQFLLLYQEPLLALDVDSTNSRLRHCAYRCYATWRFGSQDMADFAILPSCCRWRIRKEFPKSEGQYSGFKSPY
# Rat P2X4 = molecular target: T4, Rat P2X4 (Rattus norvegicus, UniProt P51577); assay: as above; type: cell-based
# T4 construct: host or cells: cells expressing the receptor
# T4 sequence (P51577 1-388): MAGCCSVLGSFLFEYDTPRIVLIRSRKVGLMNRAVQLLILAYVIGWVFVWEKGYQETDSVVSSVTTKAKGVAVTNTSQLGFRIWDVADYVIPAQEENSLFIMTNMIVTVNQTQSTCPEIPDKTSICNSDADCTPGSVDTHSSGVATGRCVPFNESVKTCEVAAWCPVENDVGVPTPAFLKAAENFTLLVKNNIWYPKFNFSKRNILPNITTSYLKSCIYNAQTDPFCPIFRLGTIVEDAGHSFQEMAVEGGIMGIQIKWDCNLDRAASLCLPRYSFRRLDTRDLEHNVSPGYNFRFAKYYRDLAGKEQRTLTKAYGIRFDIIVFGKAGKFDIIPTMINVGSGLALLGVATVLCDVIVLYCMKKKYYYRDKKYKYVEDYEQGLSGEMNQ
# Source text: (§1) The inhibitory activities of the compound against the rat and mouse P2X4 receptors were also confirmed.
# Mouse P2X4 = molecular target: T5, Mouse P2X4 (Mus musculus, UniProt Q9JJX6); assay: as above; type: cell-based
# T5 construct: host or cells: cells expressing the receptor
# T5 sequence (Q9JJX6 1-388): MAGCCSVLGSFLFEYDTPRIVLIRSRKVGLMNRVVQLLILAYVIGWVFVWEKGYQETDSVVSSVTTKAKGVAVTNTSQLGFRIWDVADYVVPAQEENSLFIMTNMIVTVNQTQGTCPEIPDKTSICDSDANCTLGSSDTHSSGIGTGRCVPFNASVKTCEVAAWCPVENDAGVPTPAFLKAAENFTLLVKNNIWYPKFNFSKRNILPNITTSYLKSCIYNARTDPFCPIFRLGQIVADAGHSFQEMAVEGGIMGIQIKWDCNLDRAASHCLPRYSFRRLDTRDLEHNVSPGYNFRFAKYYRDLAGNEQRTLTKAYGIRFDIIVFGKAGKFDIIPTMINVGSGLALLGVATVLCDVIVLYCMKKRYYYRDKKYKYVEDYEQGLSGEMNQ
# Source text: as §1
# Rat P2X7 = molecular target: T6, Rat P2X7 (Rattus norvegicus, UniProt Q64663); assay: as above; type: cell-based
# T6 construct: host or cells: cells expressing the receptor
# T6 sequence (Q64663 1-595): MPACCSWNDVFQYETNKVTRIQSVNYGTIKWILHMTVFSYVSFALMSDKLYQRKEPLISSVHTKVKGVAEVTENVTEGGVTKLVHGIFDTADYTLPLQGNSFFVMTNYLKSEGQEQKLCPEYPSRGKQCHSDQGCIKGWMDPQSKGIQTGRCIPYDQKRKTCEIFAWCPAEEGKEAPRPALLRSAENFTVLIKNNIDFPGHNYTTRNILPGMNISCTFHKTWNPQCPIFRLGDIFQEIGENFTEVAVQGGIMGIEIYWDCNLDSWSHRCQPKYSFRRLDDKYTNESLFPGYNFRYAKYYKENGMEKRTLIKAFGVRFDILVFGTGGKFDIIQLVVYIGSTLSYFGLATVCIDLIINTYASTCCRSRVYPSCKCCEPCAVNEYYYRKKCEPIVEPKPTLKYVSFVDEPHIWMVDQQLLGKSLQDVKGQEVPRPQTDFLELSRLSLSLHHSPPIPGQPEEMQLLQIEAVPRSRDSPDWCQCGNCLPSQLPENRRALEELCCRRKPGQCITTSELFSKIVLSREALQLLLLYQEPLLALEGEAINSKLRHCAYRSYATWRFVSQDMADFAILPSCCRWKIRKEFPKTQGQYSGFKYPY
compound,measurement,setting,value
"CN(C)c1ncccc1C(=O)Nc1ccc(C2=NCC(=O)Nc3c2ccc2ccccc32)cc1.Cl.Cl [Example 15, 2-(Dimethylamino)-N-[4-(2-oxo-2,3-dihydro-1H-naphtho[1,2-e][1,4]diazepin-5-yl)phenyl]nicotinamide dihydrochloride]",Species-specific difference of the P2X4 receptor inhibitory activity,human P2X4 receptor,not observed
same,IC50,Rat P2X3,6.8 µM
same,pain threshold of the affected limb (von Frey filament test),"[1]; rat modified Chung model, 30 mg/kg orally twice a day (60 mg/kg/day) for 14 days from day 9 after operation, measured 3 hours after administration, vs. vehicle group",increased
same,analgesic activity,[1]; rat neuropathic pain model (modified Chung model),superior analgesic activity
same,IC50,Human P2X7,> 30 µM
same,IC50,Rat P2X4,1.3 µM
same,IC50,Mouse P2X4,0.52 µM
same,IC50,Rat P2X7,> 30 µM
